Assays:
H358 cells = experiment: Antiproliferative activity against H358 cells (Cell Titer Glow, ultra-low attachment plate); format: cell-based; conditions: Homo sapiens, NCI-H358, 72 h, 96-well ultra-low attachment plate, three days after addition of compound, Cell Titer Glow
Description: 2500 H358 cells were seeded in a 96-well ultra-low attachment plate (corning, 7007). After one day of growth, a serially diluted compound (a maximum concentration of 5 μM, 5-fold dilution, a total of five doses) was added. Three days after the addition of the compound, Cell Titer Glow (Promega, G9681) was added to evaluate pellet growth, and the IC50 value was calculated.

pERK level in H358 cells = experiment: pERK and ERK protein content assay in H358 cells (ELISA); format: cell-based; conditions: Homo sapiens, NCI-H358, compound 1 μM, 24 h, pERK/ERK ratio compared with DMSO group, read-out: Inhibition rate (%) of pERK level
In short: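 Percent inhibition of pERK relative to DMSO, from the ELISA pERK/ERK ratio in lysed H358 cells. Compound applied at 1 μM for 24 h after one day of growth.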

Row | SMILES | IC50 (H358 cells) [nM] | inhibition at 1 µM (pERK level in H358 cells) [%]
1 | C=CC(=O)N1CC2(CCN(c3nc(N4CC5(C4)[C@H](O)CCN5C)nc4c(OCC(F)(F)F)c(-c5c(C)ccc6[nH]ncc56)c(C5CC5)cc34)CC2)C1 [Compound 272] | < 300 | > 90
2 | C=CC(=O)N1CC2(CCN(c3nc(N4CC5(C4)[C@@H](F)CCN5C)nc4c(OCC(F)(F)F)c(-c5c(C)ccc6[nH]ncc56)c(C5CC5)cc34)CC2)C1 [Compound 273] | < 300 | > 90
3 | C=CC(=O)N1CC2(CCN(c3nc(N4CC5(C4)[C@H](F)CCN5C)nc4c(OCC(F)(F)F)c(-c5c(C)ccc6[nH]ncc56)c(C5CC5)cc34)CC2)C1 [Compound 274] | < 300 | > 90
4 | C=CC(=O)N1CC2(CCN(c3nc(N4CC5(C4)[C@@H](OC)CCN5C)nc4c(OCC(F)(F)F)c(-c5c(C)ccc6[nH]ncc56)c(C5CC5)cc34)CC2)C1 [Compound 275] | < 300 | > 90
5 | C=CC(=O)N1CC2(CCN(c3nc(N4CC5(C4)[C@H](OC)CCN5C)nc4c(OCC(F)(F)F)c(-c5c(C)ccc6[nH]ncc56)c(C5CC5)cc34)CC2)C1 [Compound 276] | < 300 | > 90
6 | C=CC(=O)N1CC2(CCN(c3nc(N4CC5(C4)[C@@H](N(C)C)CCN5C)nc4c(OCC(F)(F)F)c(-c5c(C)ccc6[nH]ncc56)c(C5CC5)cc34)CC2)C1 [Compound 277] | < 300 | > 90
7 | C=CC(=O)N1CC2(CCN(c3nc(N4CC5(C4)[C@H](N(C)C)CCN5C)nc4c(OCC(F)(F)F)c(-c5c(C)ccc6[nH]ncc56)c(C5CC5)cc34)CC2)C1 [Compound 278] | < 300 | > 90
8 | C=CC(=O)N1CC2(CCN(c3nc(N4CC5(CCCO5)C4)nc4c(OCC(F)(F)F)c(-c5c(C)ccc6[nH]ncc56)c(C5CC5)cc34)CC2)C1 [Compound 279] | < 300 | > 90
9 | C=CC(=O)N1CC2(CCN(c3nc(N4CC5(C4)OCC[C@@H]5N(C)C)nc4c(OCC(F)(F)F)c(-c5c(C)ccc6[nH]ncc56)c(C5CC5)cc34)CC2)C1 [Compound 280] | < 300 | > 90
10 | C=CC(=O)N1CC2(CCN(c3nc(N4CC5(C4)OCC[C@H]5N(C)C)nc4c(OCC(F)(F)F)c(-c5c(C)ccc6[nH]ncc56)c(C5CC5)cc34)CC2)C1 [Compound 281] | < 300 | > 90
11 | C=CC(=O)N1CC2(CCN(c3nc(N4CC5(CC(O)C5)C4)nc4c(OCC(F)(F)F)c(-c5c(C)ccc6[nH]ncc56)c(C5CC5)cc34)CC2)C1 [Compound 282] | < 300 | > 90
12 | C=CC(=O)N1CC2(CCN(c3nc(N4CC5(CC(OC)C5)C4)nc4c(OCC(F)(F)F)c(-c5c(C)ccc6[nH]ncc56)c(C5CC5)cc34)CC2)C1 [Compound 283] | 300 to 1000 | 50 to 90
13 | C=CC(=O)N1CC2(CCN(c3nc(N4CC5(CC(F)C5)C4)nc4c(OCC(F)(F)F)c(-c5c(C)ccc6[nH]ncc56)c(C5CC5)cc34)CC2)C1 [Compound 284] | < 300 | > 90
14 | C=CC(=O)N1CC2(CCN(c3nc(N4CC5(CC(C#N)C5)C4)nc4c(OCC(F)(F)F)c(-c5c(C)ccc6[nH]ncc56)c(C5CC5)cc34)CC2)C1 [Compound 285] | 300 to 1000 | 50 to 90
15 | C=CC(=O)N1CC2(CCN(c3nc(N4CC5(CC(N(C)C)C5)C4)nc4c(OCC(F)(F)F)c(-c5c(C)ccc6[nH]ncc56)c(C5CC5)cc34)CC2)C1 [Compound 286] | < 300 | > 90
16 | C=CC(=O)N1CC2(CCN(c3nc(N4CC5(CC(N6CCC6)C5)C4)nc4c(OCC(F)(F)F)c(-c5c(C)ccc6[nH]ncc56)c(C5CC5)cc34)CC2)C1 [Compound 287] | < 300 | > 90
17 | C=CC(=O)N1CC2(CCN(c3nc(N4CC5(CC(N6CC(C)C6)C5)C4)nc4c(OCC(F)(F)F)c(-c5c(C)ccc6[nH]ncc56)c(C5CC5)cc34)CC2)C1 [Compound 288] | < 300 | > 90
18 | C=CC(=O)N1CC2(CCN(c3nc(N4CC5(CC(N6CCCC6)C5)C4)nc4c(OCC(F)(F)F)c(-c5c(C)ccc6[nH]ncc56)c(C5CC5)cc34)CC2)C1 [Compound 289] | < 300 | > 90
19 | C=CC(=O)N1CC2(CCN(c3nc(N4CC5(CC(N6CCC[C@@H]6C)C5)C4)nc4c(OCC(F)(F)F)c(-c5c(C)ccc6[nH]ncc56)c(C5CC5)cc34)CC2)C1 [Compound 290] | < 300 | > 90
20 | C=CC(=O)N1CC2(CCN(c3nc(N4CC5(CC(N6CCC[C@H]6C)C5)C4)nc4c(OCC(F)(F)F)c(-c5c(C)ccc6[nH]ncc56)c(C5CC5)cc34)CC2)C1 [Compound 291] | < 300 | > 90
